Test system: SREBP-1
Assay: SREBP-1 maturation (Western immunoblot) in hepatocytes transfected with N-SMase plasmids or incubated with r-N-SMase
Type: cell-based, human
Details: C-2 ceramide positive control
Description: The present example was conducted to address whether the overexpression of N-SMase employing two separate N-SMase plasmid DNA(PHH-1, representing the entire nucleotide sequence in N-SMase cDNA and PHH-11, representing nucleotide sequence 862-1414) would increase the maturation of SREBP-1 and LDL receptor mRNA expression in a human hepatocyte cell line […]. Cells transfected with mock plasmid cDNA(PSV-SPOT) served as a control and cells incubated with C-2 ceramide previously shown to induce SREBP-1 maturation served as a positive control.
Briefly, human hepatocytes(1×10^4) were seeded in sterile 100 mm^2 in medium containing 10% dialyzed, heat inactivated fetal bovine serum without antibiotics. Twenty four hours later medium was replaced with 9 ml of fresh serum free medium. After incubation for 30 min at 37° C. 5-40 μg of the plasmid DNA in 1 ml of a CaCl2 solution (mixed with equal volume of 0.25-2.5 M CaCl2 solution in HEPES buffer and HEPES buffer pH 6.95). Following gentle mixing incubation of cells was continued for 5-24 hr at 37° C. The transfection reaction was terminated by removing the medium and washing the cells with serum free medium. Next, fresh serum supplemented medium was added and incubation was continued for an additional 24 hr and cells were harvested in appropriate buffer centrifuged and stored frozen until further analysis. […]

maturation of SREBP-1 in hepatocytes incubated with protein or ceramide (r-N-SMase 0.4, 0.8, 2, and 4 μg/ml): markedly increased
Compound: CCCCCCCCCCCCC/C=C/[C@@H](O)[C@H](CO)NC(C)=O [C2-ceramide, N-acetylsphingosine, reference compound]
maturation of SREBP-1 compared to mock cDNA transfected cells (PHH1 5,10,20,40 μg plasmid DNA/dish, PHH11 20 μg/dish): markedly increased

Source: US6713057B1, “Compositions and methods for modulating serum cholesterol” (The Johns Hopkins University, priority 1999, dated 2004)
